# Data published in US20240065271A1, “MIXTURES AND COMPOSITIONS COMPRISING FUSARICIDIN A, FUSARICIDIN B AND FUNGICIDES” (BASF SE, priority 2020, published 2024).
# Key:
# Pyricularia oryzae = assay: microbe, parasite or virus in culture; assay type: cell-based; conditions: for Observed efficacy: single active
# Sclerotinia sclerotiorum = assay: Activity against Sclerotinia sclerotiorum in the microtiterplate test (SCLESC); assay type: cell-based; conditions: single active
# Botrytis cinerea = assay: Activity against grey mold Botrytis cinerea in the microtiterplate test (BOTRCI); assay type: cell-based; conditions: single active
# [1] = system: Colletotrichum orbiculare; assay: Activity against Colletotrichum orbiculare in the microtiterplate test (COLLLA); assay type: cell-based; conditions: single active
# Staphylococcus aureus = conditions: clinically relevant fungi and gram-positive bacteria such a Staphylococcus aureus; cited from earlier work
# [2] = Pyricularia oryzae, 168 h, read-out: Observed efficacy
compound,measurement,setting,value
"Cn1cc(C(=O)Nc2ccccc2-c2cc(F)c(F)c(F)c2)c(C(F)F)n1 [Fluxapyroxad, fluxapyroxad]",Observed efficacy,Pyricularia oryzae; 0.016 ppm,3
"Cc1c(Br)c2ccc(F)cc2n1S(=O)(=O)c1ncn(S(=O)(=O)N(C)C)n1 [Amisulbrom, amisulbrom]",Observed efficacy,Pyricularia oryzae; 1 ppm,3
same,Observed efficacy,Pyricularia oryzae; 4 ppm,11
"COC(=O)CC(NC(=O)[C@@H](NC(=O)OC(C)C)C(C)C)c1ccc(Cl)cc1 (stereo partly shown) [Valifenalat, valifenalate]",Observed efficacy,Pyricularia oryzae; 4 ppm,1
fosetyl-aluminium,Observed efficacy,Pyricularia oryzae; 4 ppm,4
"CC(C)[C@H](NC(=O)O)C(=O)N[C@H](C)c1nc2ccc(F)cc2s1 [Benthiavalicarb, benthiavalicarb]",Observed efficacy,Pyricularia oryzae; 4 ppm,0
same,Observed efficacy,Pyricularia oryzae; 16 ppm,8
"O=C(NCc1ncc(C(F)(F)F)cc1Cl)c1c(Cl)cccc1Cl [Fluopicolid, fluopicolide]",Observed efficacy,Pyricularia oryzae; 1 ppm,2
"CON=C(C(=O)OC)c1ccccc1CON=C(C)c1cccc(C(F)(F)F)c1 [Trifloxystrobin, trifloxystrobin]",Observed efficacy,Sclerotinia sclerotiorum; 0.063 ppm,41
same,Observed efficacy,Botrytis cinerea; 0.063 ppm,0
"C#CCOc1ccc(CCNC(=O)C(OCC#C)c2ccc(Cl)cc2)cc1OC (stereo not shown) [Mandipropamid, mandipropamid]",Observed efficacy,Sclerotinia sclerotiorum; 63 ppm,29
same,Observed efficacy,Botrytis cinerea; 63 ppm,16
same,Observed efficacy,Pyricularia oryzae; 16 ppm,7
"CCC(C)(NC(=O)c1cc(Cl)c(C)c(Cl)c1)C(=O)CCl (stereo not shown) [Zoxamid, zoxamide]",Observed efficacy,[1]; 1 ppm,0
same,Observed efficacy,Sclerotinia sclerotiorum; 1 ppm,0
same,Observed efficacy,Botrytis cinerea; 1 ppm,11
same,inhibition of growth at 4 ppm,Pyricularia oryzae; [2],39%
"CCCN(CC)CC1COC2(CCC(C(C)(C)C)CC2)O1 (stereo not shown) [Spiroxamin, spiroxamine]",Observed efficacy,[1]; 16 ppm,8
same,inhibition of growth at 4 ppm,Pyricularia oryzae; [2],3%
same,inhibition of growth at 16 ppm,Pyricularia oryzae; [2],17%
"CO/N=C(/C1=NOCCO1)c1ccccc1Oc1ncnc(Oc2ccccc2Cl)c1F [Fluoxastrobin, fluoxastrobin]",inhibition of growth at 0.016 ppm,Pyricularia oryzae; [2],8%
"Cc1ccc(C(C)NC(=O)[C@@H](NC(=O)OC(C)C)C(C)C)cc1 (stereo partly shown) [Iprovalicarb, iprovalicarb]",Observed efficacy,Pyricularia oryzae; 1 ppm,8
same,Observed efficacy,Pyricularia oryzae; 4 ppm,17
metiram,Observed efficacy,Pyricularia oryzae; 16 ppm,17
"Cc1cc(C(F)(F)F)nn1CC(=O)N1CCC(c2nc(C3=NOC(c4c(F)cccc4F)C3)cs2)CC1 (stereo not shown) [Oxathiapiprolin, oxathiapiprolin]",Observed efficacy,Botrytis cinerea; 16 ppm,11
"Cc1cccc(-n2nnn(C)c2=O)c1COc1ccn(-c2ccc(Cl)cc2)n1 [Methyltetraprol, metyltetraprole]",Observed efficacy,[1]; 0.063 ppm,19
same,Observed efficacy,Pyricularia oryzae; 0.016 ppm,16
"O=C(Nc1ccccc1-c1ccc(Cl)cc1)c1cccnc1Cl [Boscalid, boscalid]",inhibition of growth at 1 ppm,Pyricularia oryzae; [2],5%
"CCNC(=O)NC(=O)/C(C#N)=N/OC [Cymoxanil, cymoxanil]",inhibition of growth at 16 ppm,Pyricularia oryzae; [2],3%
same,inhibition of growth at 63 ppm,Pyricularia oryzae; [2],11%
"CCCCCCCCc1c(CC)nc2ncnn2c1N [Ametoctradin, ametoctradin]",Observed efficacy,Pyricularia oryzae; 4 ppm,12
"O=[N+]([O-])c1cc(C(F)(F)F)c(Cl)c([N+](=O)[O-])c1Nc1ncc(C(F)(F)F)cc1Cl [Fluazinam, fluazinam]",inhibition of growth at 0.063 ppm,Pyricularia oryzae; [2],8%
mancozeb,Observed efficacy,Pyricularia oryzae; 0.25 ppm,5
fusaricidin A,MIC value range,Staphylococcus aureus,0.78 to 3.12 µg/mL
"N#Cc1sc2c(=O)c3ccccc3c(=O)c=2sc1C#N [Dithianon, dithianon]",Observed efficacy,[1]; 0.063 ppm,0
same,Observed efficacy,Sclerotinia sclerotiorum; 1 ppm,57
"Cc1ccc(-c2c(Cl)nc(C#N)n2S(=O)(=O)N(C)C)cc1 [Cyazofamid, cyazofamid]",inhibition of growth at 0.25 ppm,Pyricularia oryzae; [2],6%
same,inhibition of growth at 1 ppm,Pyricularia oryzae; [2],16%
"COc1cc(C)c(C(=O)c2c(OC)ncc(Cl)c2C)c(OC)c1OC [Pyriofenon, pyriofenone]",Observed efficacy,[1]; 16 ppm,20
same,Observed efficacy,Botrytis cinerea; 16 ppm,12
same,Observed efficacy,Pyricularia oryzae; 4 ppm,6
same,Observed efficacy,Pyricularia oryzae; 16 ppm,18
"COc1cc(C)c(C(=O)c2c(OC)ccc(Br)c2C)c(OC)c1OC [Metrafenon, metrafenone]",inhibition of growth at 0.25 ppm,Pyricularia oryzae; [2],3%
